The source made the active and inactive calls. No rule for the calls is given here.
Tested on: CCRIS mutagenicity, Ames/micronucleus/aberration tests
Experiment: CCRIS mutagenicity studies

Measured: mutagenic call

O=[N+]([O-])c1ccc2c(c1)CCc1cc3c(cc1-2)CCCC3
active: Test System: AMES SALMONELLA TYPHIMURIUM, Strain/Indicator: TA98(1,8-DNP6), Metabolic Activation: NONE active; positive | Test System: AMES SALMONELLA TYPHIMURIUM, Strain/Indicator: TA98(1,8-DNP6), Metabolic Activation: RAT, LIVER, S-9, AROCLOR 1254 active; positive | Test System: AMES SALMONELLA TYPHIMURIUM, Strain/Indicator: TA98(NR), Metabolic Activation: NONE active; positive | Test System: AMES SALMONELLA TYPHIMURIUM, Strain/Indicator: TA98(NR), Metabolic Activation: RAT, LIVER, S-9, AROCLOR 1254 active; positive | Test System: AMES SALMONELLA TYPHIMURIUM, Strain/Indicator: TA98, Metabolic Activation: NONE active; positive | Test System: AMES SALMONELLA TYPHIMURIUM, Strain/Indicator: TA98, Metabolic Activation: RAT, LIVER, S-9, AROCLOR 1254 active; positive | Test System: AMES SALMONELLA TYPHIMURIUM, Strain/Indicator: TA100(NR), Metabolic Activation: NONE active; positive | Test System: AMES SALMONELLA TYPHIMURIUM, Strain/Indicator: TA100(NR), Metabolic Activation: RAT, LIVER, S-9, AROCLOR 1254 active; positive | Test System: AMES SALMONELLA TYPHIMURIUM, Strain/Indicator: TA100, Metabolic Activation: NONE active; positive | Test System: AMES SALMONELLA TYPHIMURIUM, Strain/Indicator: TA100, Metabolic Activation: RAT, LIVER, S-9, AROCLOR 1254 active; positive | Test System: AMES SALMONELLA TYPHIMURIUM, Strain/Indicator: TA104, Metabolic Activation: NONE active; positive | Test System: AMES SALMONELLA TYPHIMURIUM, Strain/Indicator: TA104, Metabolic Activation: RAT, LIVER, S-9, AROCLOR 1254 active; positive

CCOC(=O)[C@H](CCc1ccccc1)N[C@@H](C)C(=O)N1[C@H](C(=O)O)C[C@H]2CCCC[C@@H]21
inactive: Test System: AMES SALMONELLA TYPHIMURIUM, Strain/Indicator: TA98, Metabolic Activation: NONE, Method: PREINCUBATION inactive; negative | Test System: AMES SALMONELLA TYPHIMURIUM, Strain/Indicator: TA98, Metabolic Activation: RAT, LIVER, S-9, PHENOBARBITAL AND 5,6-BENZOFLAVONE, Method: PREINCUBATION inactive; negative | Test System: AMES SALMONELLA TYPHIMURIUM, Strain/Indicator: TA100, Metabolic Activation: NONE, Method: PREINCUBATION inactive; negative | Test System: AMES SALMONELLA TYPHIMURIUM, Strain/Indicator: TA100, Metabolic Activation: RAT, LIVER, S-9, PHENOBARBITAL AND 5,6-BENZOFLAVONE, Method: PREINCUBATION inactive; negative | Test System: AMES SALMONELLA TYPHIMURIUM, Strain/Indicator: TA1535, Metabolic Activation: NONE, Method: PREINCUBATION inactive; negative | Test System: AMES SALMONELLA TYPHIMURIUM, Strain/Indicator: TA1535, Metabolic Activation: RAT, LIVER, S-9, PHENOBARBITAL AND 5,6-BENZOFLAVONE, Method: PREINCUBATION inactive; negative | Test System: AMES SALMONELLA TYPHIMURIUM, Strain/Indicator: TA1537, Metabolic Activation: NONE, Method: PREINCUBATION inactive; negative | Test System: AMES SALMONELLA TYPHIMURIUM, Strain/Indicator: TA1537, Metabolic Activation: RAT, LIVER, S-9, PHENOBARBITAL AND 5,6-BENZOFLAVONE, Method: PREINCUBATION inactive; negative | Test System: E. COLI, Strain/Indicator: WP2 UVRA, Metabolic Activation: NONE, Method: PREINCUBATION inactive; negative | Test System: E. COLI, Strain/Indicator: WP2 UVRA, Metabolic Activation: RAT, LIVER, S-9, PHENOBARBITAL AND 5,6-BENZOFLAVONE, Method: PREINCUBATION inactive; negative

Reference: PubChem BioAssay AID1259407 (Chemical Carcinogenesis Research Information System (CCRIS), 2018)
